This note sets out measurements from patent US20100210467A1, “AGENT FOR IMPROVING SUGARCANE BRIX AND METHOD OF PROMOTING SUGARCANE RIPENING USING THE SAME” (Kumiai Chemical Industry Co., Ltd., priority 2007, published 2010).

Common to all, as to type: in vivo
The test system of assay [1] is sugarcane. Nature of the assay: Example 4: sugar content of sugarcane stem juice after pyribenzoxim back pack spraying, field test in Brazil. How it is done: (§1) In accordance with “NORMAS DE AVALIAçÃO DA […] DA CANA-DE-AçÚCAR” used in Brazilian sugar refining plants as Standard for quality evaluation of sugarcane, the analysis on the sugar content in the squeezed juice of sugarcane stem was carried out for Brix value, sugar content in sugarcane (PC), and total sugar amount recoverable from sugarcane stem (ATR) as follows.
(§2) Brix was measured according to a digital refractometer. PC was calculated according to the equation (1). ATR was calculated according to the equation (5).
At the time the Brix value of sugarcane grown in a sugarcane cultivated area in Brazil (an average Brix value in the harvesttime being 20%) became 86% of the aforesaid average Brix value, a pyribenzoxim formulation (a tradename “PYANCHOR”) was diluted with water so that the amount of the effective ingredient in 105 liters of the spraying liquid could be equal to the used amount shown in Table 6, and the liquid was sprayed above the plant by the aid of a CO2-pressurized back pack sprayer to the test area at a rate of 105 liters per hectare.
(§3) In a control area, a known sulfometuron-methyl formulation (a commercially available product, a tradename “CURAVIAL”) was similarly sprayed.
(§4) Next, 20 individual sugarcanes were cut from each area on the initial day of spraying, after 15 days of spraying, after 30 days of spraying and after 45 days of spraying, and thereafter the stems were squeezed and sugar was recovered from the juice to obtain the yield. Each yield was compared with the yield of the initial day of spraying and the rate of increase (%) was calculated. The analysis on the sugar content in the squeezed juice of sugarcane stems was carried out similarly as in the case of Example 1.

The subject of assay [2] is sugarcane. Nature of the assay: Example 5: sugar content of sugarcane stem juice after bispyribac-sodium and/or gibberellin spraying, field test in Brazil. The procedure:
as §1, §2
At the time the Brix value of sugarcane grown in a sugarcane cultivated area in Brazil (an average Brix value in the harvesttime being 18%) became 88% of the aforesaid average Brix value, a bispyribac-sodium formulation (a commercially available product, a tradename, “NOMINEE 400SC”) and a gibberellin formulation (a commercially available product, a tradename, “PRO-GIBB”) were admixed together and diluted with water or separately diluted with water so that the amount of the effective ingredient in 105 liters of each of the spraying liquids could be equal to the used amount shown in Table 8, and each liquid was sprayed above the plant by the aid of a CO2-pressurized back pack sprayer to the test area at a rate of 105 liters per hectare.
as §3, §4

Assay [3] relates to sugarcane. Kind of assay: Example 3: sugar content of sugarcane stem juice after pyrimisulfan back pack spraying, field test in Brazil. How it is done:
as §1, §2
At the time the Brix value of sugarcane grown in a sugarcane cultivated area in Brazil (an average Brix value in the harvesttime being 18%) became 88% of the aforesaid average Brix value, pyrimisulfan (pyrimisulfan prepared by a method disclosed in JP2000-44546A) was diluted with water so that the amount of the effective ingredient in 105 liters of the spraying liquid could be equal to the used amount shown in Table 4, and the liquid was sprayed above the plant by the aid of a CO2-pressurized back pack sprayer to the test area at a rate of 105 liters per hectare.
as §3, §4

Assay [4] deals with sugarcane. Nature of the assay: Example 1: sugar content of sugarcane stem juice after power-sprayer application, field test in Brazil. To be noted: 15 g/ha. How it is done:
With respect to sugarcane grown in a sugarcane cultivated area in Brazil (an average Brix value in the harvesttime being 18%), a juice was collected from 5 middle internodes selected at random in the sugarcane stem and the Brix value was measured according to a usual method. At the time the measured Brix value became 82% of the aforementioned average Brix value, a bispyribac-sodium formulation (a commercially available product, a tradename “NOMINEE 400SC”) was diluted with water so that the amount of the effective ingredient in 74 liters of the spraying liquid could be equal to the used amount shown in Table 1. The liquid was then sprayed above the plant by the aid of a power sprayer to a test area at a rate of 74 liters per hectare.
as §3
Next, 10 individual sugarcanes were cut from each area on the initial day of spraying, after 30 days of spraying and after 45 days of spraying, and thereafter the stem was squeezed and sugar was recovered from the juice to obtain the yield. Each yield was compared with the yield of the initial day of spraying and the rate of increase (%) was calculated.
as §1, §2
S denotes a sugar content in the extracted liquid and is calculated according to the equation (2). F denotes an amount of fibers in sugarcane and is calculated according to the equation (3). C denotes a conversion coefficient from the sugar content in the extracted liquid to an absolute amount and is calculated according to the equation (4).
LAI denotes a measured value by the digital saccharimeter after clarification of the juice by a clarifying mixture made from aluminum.
PBU denotes the mass of a wet bagasse exhausted from a pressing machine in the squeezed step of sugarcane stem.
ARC denotes an amount of reducing sugar of sugarcane and is calculated from the following equation (6).
AR denotes an amount of reducing sugar in the extracted liquid and is calculated from the following equation (7).

The subject of assay [5] is sugarcane. Nature of the assay: Example 2: sugar content of sugarcane stem juice after spraying from an aircraft, field test in Brazil. To be noted: 50 g/ha; after 30 days of spraying. How it is done:
as §1, §2
At the time the Brix value of sugarcane grown in a sugarcane cultivated area in Brazil (an average Brix value in the harvesttime being 21%) became 81% of the aforesaid average Brix value, a bispyribac-sodium formulation (a commercially available product, a tradename “NOMINEE 400SC”) was diluted with water so that the amount of the effective ingredient in 30 liters of the spraying liquid could be equal to the used amount shown in Table 3, and the liquid was sprayed over the test area from an air-craft at a rate of 30 liters per hectare.
In a control area, a known fluazifop formulation (a commercially available product, a tradename “[…]”) was similarly sprayed.
Next, 5 individual sugarcanes were cut from 5 locations in each area, i.e. 25 sugarcanes from each area, on the initial day of spraying and after 30 days of spraying, and thereafter the stems were squeezed and sugar was recovered from the juice to obtain the yield. The yield after 30 days of spraying was compared with the yield of the initial day of spraying and the rate of increase (%) was calculated. The analysis on the sugar content in the squeezed juice of sugarcane stems was carried out similarly as in the case of Example 1.

The mark [6] stands for this setting: 15 g/ha, after 15 days of spraying.
[7] abbreviates: 15 g/ha, after 30 days of spraying.
[8] abbreviates: 15 g/ha, after 45 days of spraying.
[9] abbreviates: 10 g/ha, after 15 days of spraying.
Where [10] appears, read: 10 g/ha, after 30 days of spraying.
[11] abbreviates: 10 g/ha, after 45 days of spraying.
Setting [12] is: 40 g/ha, after 15 days of spraying.
The mark [13] stands for this setting: 40 g/ha, after 30 days of spraying.
Setting [14] is: 40 g/ha, after 45 days of spraying.

Turning to `COC(=O)c1ccccc1S(=O)(=O)NC(=O)Nc1nc(C)cc(C)n1` [Sulfometuron-methyl, sulfometuron-methyl], the “ATR increased rate from the initial day of spraying” value (from here on “ATR increased rate”) with sugarcane [1] (setting [6]) is −3.2%; in the assay on sugarcane [1] (setting [7]) it was 9.9%; with sugarcane [1] (setting [8]), 19.0%; in the assay with sugarcane [2] (setting [6]), 1.7%; in the assay on sugarcane [2] (setting [7]), 8.1%; with sugarcane [2] (setting [8]) it was −0.6%. In addition, the “ATR increased rate” value is on record as 1.7% in the assay with sugarcane [3] (setting [6]); 8.1% in the assay with sugarcane [3] (setting [7]); −0.6% in the assay on sugarcane [3] (setting [8]); 21.9% in the assay on sugarcane [4] (after 30 days of spraying); 31.2% in the assay on sugarcane [4] (after 45 days of spraying). In addition, the “Brix increased rate from the initial day of spraying” value (shortened to “Brix increased rate”) is −5.4% with sugarcane [1] (setting [6]); 9.2% with sugarcane [1] (setting [7]); 17.2% in the assay on sugarcane [1] (setting [8]); 1.2% with sugarcane [2] (setting [6]); 6.4% with sugarcane [2] (setting [7]); −1.8% in the assay on sugarcane [2] (setting [8]). In addition, the “Brix increased rate” value in the assay with sugarcane [3] (setting [6]) was 1.2%; in the assay on sugarcane [3] (setting [7]) it was 6.4%; with sugarcane [3] (setting [8]), −1.8%; in the assay on sugarcane [4] (after 30 days of spraying), 21.4%; in the assay with sugarcane [4] (after 45 days of spraying) it was 29.6%. Further, the “Concentration of soluble solid matter, Brix” value (“Concentration” for short) was found to be 16.5% with sugarcane [1] (setting [6]); 19.1% in the assay on sugarcane [1] (setting [7]); 20.5% in the assay with sugarcane [1] (setting [8]); 16.7% in the assay with sugarcane [2] (setting [6]); 17.6% in the assay on sugarcane [2] (setting [7]); 16.2% in the assay with sugarcane [2] (setting [8]). For the same compound, the “Concentration” value with sugarcane [3] (setting [6]) turned out to be 16.7%; in the assay on sugarcane [3] (setting [7]) it was 17.6%; in the assay on sugarcane [3] (setting [8]), 16.2%; in the assay on sugarcane [4] (after 30 days of spraying) it was 19.2%; with sugarcane [4] (after 45 days of spraying) it was 20.5%. Further, the “Total sugar amount recoverable from 1 kg of stem, ATR” value (shortened to “Total sugar amount recoverable”) amounted to 120.1 g in the assay with sugarcane [1] (setting [6]); 136.3 g in the assay with sugarcane [1] (setting [7]); 147.6 g in the assay with sugarcane [1] (setting [8]); 117.0 g in the assay on sugarcane [2] (setting [6]); 124.5 g in the assay on sugarcane [2] (setting [7]); 114.4 g with sugarcane [2] (setting [8]). For the same compound, the “Total sugar amount recoverable” value in the assay on sugarcane [3] (setting [6]) was 117.0 g; with sugarcane [3] (setting [7]) it was 124.5 g; in the assay on sugarcane [3] (setting [8]), 114.4 g; in the assay with sugarcane [4] (after 30 days of spraying), 138.1 g; in the assay on sugarcane [4] (after 45 days of spraying), 148.7 g. Besides, the “PC increased rate from the initial day of spraying” value in the assay on sugarcane [4] (after 30 days of spraying) is given as 24.3%; in the assay with sugarcane [4] (after 45 days of spraying), 35.1%. Besides, the “Sugar content in sugarcane, PC” value in the assay on sugarcane [4] (after 30 days of spraying) is 13.9%; with sugarcane [4] (after 45 days of spraying), 15.1%.

In the case of gibberellin, in the assay on sugarcane [2] (setting [9]), the “ATR increased rate” value is on record as 5.3%; the “Brix increased rate” value is listed as 5.5%; the “Concentration” value worked out at 17.2%; the “Total sugar amount recoverable” value came out at 120.5 g. Besides, in the assay with sugarcane [2] (setting [10]), the “ATR increased rate” value came to 11.7%; the “Brix increased rate” value worked out at 8.9%; the “Concentration” value is 17.8%; the “Total sugar amount recoverable” value is 127.9 g. For the same compound, in the assay on sugarcane [2] (setting [11]), the “ATR increased rate” value is 3.8%; the “Brix increased rate” value amounted to 3.1%; the “Concentration” value was 16.8%; the “Total sugar amount recoverable” value was determined as 118.8 g.

For `COCc1cccc(C(O)c2nc(OC)cc(OC)n2)c1NS(=O)(=O)C(F)F` (stereo not drawn) [Pyrimisulfan, pyrimisulfan], in the assay on sugarcane [3] (setting [12]), the “ATR increased rate” value was found to be 5.5%; the “Brix increased rate” value came out at 5.8%; the “Concentration” value worked out at 17.4%; the “Total sugar amount recoverable” value was found to be 120.1 g. Moreover, in the assay with sugarcane [3] (setting [13]), the “ATR increased rate” value came out at 9.5%; the “Brix increased rate” value was 7.6%; the “Concentration” value was 17.7%; the “Total sugar amount recoverable” value was 124.6 g. Besides, in the assay with sugarcane [3] (setting [14]), the “ATR increased rate” value is 12.6%; the “Brix increased rate” value was 8.2%; the “Concentration” value amounted to 17.8%; the “Total sugar amount recoverable” value is 128.1 g.

In the case of `COc1cc(OC)nc(Oc2cccc(Oc3nc(OC)cc(OC)n3)c2C(=O)ON=C(c2ccccc2)c2ccccc2)n1` [Pyribenzoxim, pyribenzoxim], in the assay with sugarcane [1] (setting [12]), the “ATR increased rate” value is 14.2%; the “Brix increased rate” value is 10.9%; the “Concentration” value stood at 17.8%; the “Total sugar amount recoverable” value stood at 128.1 g. In the assay with sugarcane [1] (setting [13]), the “ATR increased rate” value was determined as 10.2%; the “Brix increased rate” value was 9.1%; the “Concentration” value is recorded as 17.5%; the “Total sugar amount recoverable” value was 123.6 g. Besides, in the assay on sugarcane [1] (setting [14]), the “ATR increased rate” value amounted to 22.0%; the “Brix increased rate” value worked out at 19.7%; the “Concentration” value turned out to be 19.2%; the “Total sugar amount recoverable” value was 136.8 g.

With `CC(Oc1ccc(Oc2ccc(C(F)(F)F)cn2)cc1)C(=O)O` (stereo not drawn) [Fluazifop, fluazifop], in the assay on sugarcane [5], the “ATR increased rate” value was determined as 20.2%; the “Brix increased rate” value is recorded as 18.1%; the “Concentration” value is 20.5%; the “PC increased rate from the initial day of spraying” value came out at 22.0%. Further, in the assay on sugarcane [5], the “Sugar content in sugarcane, PC” value is 15.1% and the “Total sugar amount recoverable” value is recorded as 146.0 g.
